The record followed here is patent publication US7189751B2, “Oxa(thia)zolidine compounds, process for preparation thereof and anti-inflammatory agents” (Nippon Soda Co., Ltd., priority 2001, dated 2007).

For this experiment, the target named is T1, IV-cPLA(2) in activated U937 cells (Homo sapiens, UniProt P47712).
T1 sequence (P47712 1-749): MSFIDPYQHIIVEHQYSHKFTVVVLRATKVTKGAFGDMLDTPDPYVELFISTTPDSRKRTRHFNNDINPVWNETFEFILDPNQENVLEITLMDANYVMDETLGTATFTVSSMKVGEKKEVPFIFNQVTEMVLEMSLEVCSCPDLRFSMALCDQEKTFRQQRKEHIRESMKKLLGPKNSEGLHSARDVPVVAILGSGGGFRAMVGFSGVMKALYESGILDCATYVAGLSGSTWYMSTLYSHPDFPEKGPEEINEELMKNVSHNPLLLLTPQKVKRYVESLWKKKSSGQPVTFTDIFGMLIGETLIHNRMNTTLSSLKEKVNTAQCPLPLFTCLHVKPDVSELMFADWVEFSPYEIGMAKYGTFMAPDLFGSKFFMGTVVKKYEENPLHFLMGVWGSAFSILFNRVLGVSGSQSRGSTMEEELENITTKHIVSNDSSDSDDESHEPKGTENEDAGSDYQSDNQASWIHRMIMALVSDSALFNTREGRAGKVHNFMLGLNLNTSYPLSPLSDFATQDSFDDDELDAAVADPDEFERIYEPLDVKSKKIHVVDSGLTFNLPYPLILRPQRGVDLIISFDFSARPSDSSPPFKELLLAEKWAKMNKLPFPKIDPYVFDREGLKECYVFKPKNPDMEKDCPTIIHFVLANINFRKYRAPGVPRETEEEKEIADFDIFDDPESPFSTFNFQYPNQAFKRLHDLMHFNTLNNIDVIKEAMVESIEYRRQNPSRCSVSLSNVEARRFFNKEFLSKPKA
Kind of experiment: PLA(2) activity: hydrolysis of bis-BODIPY FL C11-PC in TPA/A23187-activated U937 cells. It is filed as cell-based. To be noted: U-937; Concentration 10 μM; inflammatory activated PLA(2) activity, U937 cells. As to the method:
The PLA(2) activity was measured by quantitatively analyzing the fluorescent product of hydrolysis from 1,2-bis-(4,4-difluoro-5,7-dimethyl-4-bora-3a,4a-diaza-s-indecene-3-undecanoyl)-sn-glycero-3-phosphocholine (hereinafter referred to bis-BODIPY®FL C11-PC, Molecular probes, Inc., B-7701) using activated U937 cells (human monoblastic lymphoma cell line) by inflammatory stimulus (Meshulam, T. et al., The journal of Biological Chemistry 267 (30): 21465–21470 (1992); and Solito, E. et al., British Journal of Pharmacology 124: 1675–1683(1998).). The substrate bis-BODIPY®FL C11-PC is incorporated into cellular membranes, the proximity of the BODIPY®FL fluorophores on adjacent phospholipid acyl chains causes fluorescence self-quenching. Separation of the fluorophores upon hydrolytic cleavage of one of the acyl chains by PLA(1) or the PLA(2) results in increased fluorescence. […]
The test compound was dissolved with DMSO at 30 mM, and the solution diluted with either DMSO or the Assay medium before addition into the reaction mixture. […] The increased fluorescence of the hydrolysis product by the enzyme was determined by measuring the fluorescence emission intensity at 535 nm with excitation at 485 nm from the top side of each plate at 37° C., using a Multi Functional Microplate Reader SPECTRA FLUOR PLUS (TECAN Austria GmbH). […]

As for `CCOC(=O)C(=C1N[C@@H](C)[C@H](c2ccc(Cl)cc2)S1)[N+](=O)[O-]` (relative stereo) [Compound 2-29, Trans-5-(4-chlorophenyl)-4-methyl-2-(1-ethoxycarbonyl-1-nitromethylene)-thiazolidine], 10 µM produced 99% inhibition.
